Laboratory results: patent publication US20250230155A1 (Vanderbilt University, priority 2021, published 2025)

Molecular target: T1, human mAChR M4 (Homo sapiens, UniProt P08173)
T1 construct: expressed in transfected cells
T1 sequence (P08173 1-479): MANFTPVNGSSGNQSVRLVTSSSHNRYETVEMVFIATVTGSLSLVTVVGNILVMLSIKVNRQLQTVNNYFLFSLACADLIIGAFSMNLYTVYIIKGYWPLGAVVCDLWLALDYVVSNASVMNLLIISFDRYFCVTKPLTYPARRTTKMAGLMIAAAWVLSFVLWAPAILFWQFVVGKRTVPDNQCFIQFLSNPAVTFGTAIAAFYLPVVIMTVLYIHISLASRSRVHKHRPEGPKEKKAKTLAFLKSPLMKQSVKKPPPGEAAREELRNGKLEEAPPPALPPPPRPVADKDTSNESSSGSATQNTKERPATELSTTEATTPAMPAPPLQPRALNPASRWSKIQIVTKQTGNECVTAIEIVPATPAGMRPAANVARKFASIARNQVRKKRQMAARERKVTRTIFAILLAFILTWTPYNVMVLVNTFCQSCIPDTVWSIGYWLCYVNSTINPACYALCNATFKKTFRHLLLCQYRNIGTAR
Assay: mAChR M4 cell-based functional assay (calcium mobilization, CHO-K1 hM4-Gqi5 cells)
Conditions: for Emax at 30 µM: CHO-K1, % ACh maximum at 30 μM, human M4; for EC50: positive allosteric modulator activity, increase in the EC20 acetylcholine response, CHO-K1 hM4-Gqi5 cells, read-out: Human M4 EC50; for Emax: CHO-K1
How it was run: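 Fluorescent calcium read-out (Fluo-4 AM, FDSS, 1 Hz) in hM4-Gqi5 CHO-K1 cells, 11-point 1:3 compound series. Agonism scored on compound addition, PAM activity as increase of the 144 s EC20 acetylcholine response, antagonism as decrease of the 230 s EC80 response; four-parameter logistic fits give EC50 and Emax.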

SMILES	Emax at 30 µM	EC50	Emax
Cc1c(C#N)nnc(N2CCc3ncc(C(F)(F)F)cc3C2)c1C [Example 303, 4,5-dimethyl-6-(3-(trifluoromethyl)-7,8-dihydro-1,6-naphthyridin-6(5H)-yl)pyridazine-3-carbonitrile]	48%	1600 nM	
Cc1nc(C)c(-c2cnc3c(c2)CN(c2ncc(C#N)cc2C)CC3)s1 [compound 184, 6-[3-(2,4-dimethylthiazol-5-yl)-7,8-dihydro-5H-1,6-naphthyridin-6-yl]-5-methyl-pyridine-3-carbonitrile]	111%	106 nM	
COCc1nc(Cl)c(C)c(N2CCc3ncc(-c4cn(C)nc4C)cc3C2)n1 [compound 216, 6-(6-chloro-2-(methoxymethyl)-5-methylpyrimidin-4-yl)-3-(1,3-dimethyl-1H-pyrazol-4-yl)-5,6,7,8-tetrahydro-1,6-naphthyridine]	94%	864 nM	
Cc1cc(C(=O)N2CC(F)(F)C2)nnc1N1CCc2ncc(N3CCCn4nccc43)cc2C1 [Example 544, (3,3-difluoroazetidin-1-yl)(6-(3-(6,7-dihydropyrazolo[1,5-a]pyrimidin-4(5H)-yl)-7,8-dihydro-1,6-naphthyridin-6(5/)-yl)-5-methylpyridazin-3-yl)methanone]	105%	45 nM	
Cc1cc(C#N)nnc1N1CCc2ncc(C(F)F)cc2C1 [Example 309, 6-(3-(difluoromethyl)-7,8-dihydro-1,6-naphthyridin-6(5H)-yl)-5-methylpyridazine-3-carbonitrile]		770 nM	96%
Cc1cc(C(=O)NCc2cnc(Cl)s2)cnc1N1CCc2ncc(-c3cn(C)nc3C)cc2C1 [Example 455, N-((2-chlorothiazol-5-yl)methyl)-6-(3-(1,3-dimethyl-1H-pyrazol-4-yl)-7,8-dihydro-1,6-naphthyridin-6(5H)-yl)-5-methylnicotinamide]	93%	581 nM	
[2H]C([2H])(NC(=O)c1cc(C)c(N2CCc3ncc(N4CCCn5nccc54)cc3C2)nn1)c1ccncc1 [Example 509, 6-(3-(6,7-dihydropyrazolo[1,5-a]pyrimidin-4(5H)-yl)-7,8-dihydro-1,6-naphthyridin-6(5H)-yl)-5-methyl-N-(pyridin-4-ylmethyl-d2)pyridazine-3-carboxamide]	104%	12 nM	
COC(=O)c1cnc(N2CCc3ncccc3C2)c(C)c1 [compound 71, methyl 6-(7,8-dihydro-5H-1,6-naphthyridin-6-yl)-5-methyl-pyridine-3-carboxylate]		3380 nM	102%
Cc1cc(C(=O)N2CC3(COC3)C2)nnc1N1CCc2ncc(N3CCO[C@H](C)C3)cc2C1 [Example 575, (R)-(5-methyl-6-(3-(2-methylmorpholino)-7,8-dihydro-1,6-naphthyridin-6(5H)-yl)pyridazin-3-yl)(2-oxa-6-azaspiro[3.3]heptan-6-yl)methanone]	75%	88 nM	
Cc1cc(C(=O)NCc2cncs2)cnc1N1CCc2ncc(C(F)(F)F)cc2C1 [Example 443, 5-methyl-N-(thiazol-5-ylmethyl)-6-(3-(trifluoromethyl)-7,8-dihydro-1,6-naphthyridin-6(5H)-yl)nicotinamide]	107%	157 nM	
[2H]C1([2H])Cc2ncc(Nc3ccccc3F)cc2C([2H])([2H])N1c1ncc(C#N)cc1C [Example 612]	91%	24 nM	
Cc1cc(C#N)cnc1N1CCc2ncc(Nc3cc(F)cc(F)c3F)cc2C1 [compound 116, 5-methyl-6-[3-(2,3,5-trifluoroanilino)-7,8-dihydro-5H-1,6-naphthyridin-6-yl]pyridine-3-carbonitrile]	95%	336 nM	
Cc1cnccc1CNC(=O)c1cnc(N2CCc3ncc(C(F)(F)F)cc3C2)c(C)c1 [Example 445, 5-methyl-N-((3-methylpyridin-4-yl)methyl)-6-(3-(trifluoromethyl)-7,8-dihydro-1,6-naphthyridin-6(5H)-yl)nicotinamide]	100%	170 nM	
